Assay results from PubChem BioAssay AID588605 (Sanford-Burnham Center for Chemical Genomics, 2011).
Activity calls are given as the source filed them. How the calls were made is not given here.

The compounds below were run against Alkaline phosphatase, tissue-nonspecific isozyme (Homo sapiens) (UniProt P05186) (assay: human TNAP activity change by analogs – biochemical, set 2, selectivity assay for mouse IAP activator project, SAR follow-up (AID 588605)). Conditions: TNAP enzyme assay, SAR counter-screen for mouse IAP activators.
Alkaline phosphatase, tissue-nonspecific isozyme (Homo sapiens), sequence (P05186 whole entry, looked up): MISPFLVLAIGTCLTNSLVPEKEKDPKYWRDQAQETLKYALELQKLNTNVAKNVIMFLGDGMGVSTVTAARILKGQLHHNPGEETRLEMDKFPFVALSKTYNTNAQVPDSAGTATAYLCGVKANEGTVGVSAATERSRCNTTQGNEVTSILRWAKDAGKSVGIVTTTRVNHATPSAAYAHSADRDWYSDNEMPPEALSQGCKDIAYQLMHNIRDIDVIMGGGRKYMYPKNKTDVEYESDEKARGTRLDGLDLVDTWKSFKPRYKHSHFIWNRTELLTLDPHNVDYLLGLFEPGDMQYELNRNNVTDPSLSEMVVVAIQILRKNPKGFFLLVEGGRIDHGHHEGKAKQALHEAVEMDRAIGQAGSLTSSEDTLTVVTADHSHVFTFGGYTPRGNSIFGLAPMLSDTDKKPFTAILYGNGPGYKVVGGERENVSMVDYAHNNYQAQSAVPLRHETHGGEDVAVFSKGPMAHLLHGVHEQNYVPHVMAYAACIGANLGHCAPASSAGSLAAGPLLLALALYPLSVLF
With `CN(C)S(=O)(=O)c1ccc(NC(=S)NCCN2CCCC2)cc1` the EC50 was > 100 µM (inactive). For `CN(C)S(=O)(=O)c1cccc(NC(=S)NCCc2ccccc2)c1`, the EC50 was 97.8 µM. For `CN(C)S(=O)(=O)c1cccc(NC(=S)NCCc2ccc(F)cc2)c1`, the EC50 was > 100 µM (inactive). In the case of `O=C(CCc1ccccc1)NC(=S)Nc1cccc(S(=O)(=O)N2CCCC2)c1`, the EC50 is reported as > 100 µM (inactive). In the case of `CN(C)S(=O)(=O)c1cccc(NC(=S)NCCCN2CCCC2=O)c1`, the EC50 is reported as > 100 µM (inactive). `Cc1ccc(CNC(=S)Nc2ccc(S(=O)(=O)N(C)C)cc2)cc1` gave an EC50 of 86.1 µM. In the case of `COc1cccc(CNC(=S)Nc2ccc(S(=O)(=O)N(C)C)cc2)c1`, the EC50 is reported as > 100 µM (inactive). `CN(C)S(=O)(=O)c1cccc(NC(=S)NCC(c2ccccc2)c2ccccc2)c1` showed an EC50 of 22.9 µM. With `CN(C)S(=O)(=O)c1cccc(NC(=S)NCCc2cccc(F)c2)c1` the EC50 was > 100 µM (inactive). `CC1CCN(S(=O)(=O)c2ccc(NC(=S)NCCC(c3ccccc3)c3ccccc3)cc2)CC1` showed an EC50 of 18.9 µM. For `CC1CCN(S(=O)(=O)c2ccc(NC(=S)NC(c3ccccc3)c3ccccc3)cc2)CC1`, the EC50 was > 100 µM (inactive). Compound `COc1ccccc1CNC(=S)Nc1ccc(S(=O)(=O)N(C)C)cc1` has an EC50 of 89.9 µM. `CCOc1cc(CCNC(=S)Nc2ccc(S(=O)(=O)N(C)C)cc2)ccc1OC` was tested, and the EC50 was > 100 µM (inactive). `CN(C)S(=O)(=O)c1cccc(NC(=S)NCCc2ccc(Br)cc2)c1` showed an EC50 of 86.7 µM. `Cc1ccccc1CNC(=S)Nc1ccc(S(=O)(=O)N(C)C)cc1` showed an EC50 of 75.6 µM. `CN(CCc1ccccn1)C(=S)Nc1cccc(S(=O)(=O)N(C)C)c1` was tested, and the EC50 was > 100 µM (inactive). Compound `O=S(=O)(c1ccc(NC(=S)NCC(c2ccccc2)c2ccccc2)cc1)N1CCCCC1` has an EC50 of 25.5 µM. `Cc1ccc(S(=O)(=O)N(C)C)cc1NC(=S)NC(=O)C12CC3CC(CC(C3)C1)C2` was tested, and the EC50 was > 100 µM (inactive). For `CC(CNC(=S)Nc1cccc(S(=O)(=O)N(C)C)c1)N1CCN(c2ccccc2)CC1` (centres undefined), the EC50 was > 100 µM (inactive). In the case of `O=S(=O)(c1ccc(NC(=S)NCCC(c2ccccc2)c2ccccc2)cc1)N1CCCCC1`, the EC50 is reported as 47.2 µM. `CCN(CC)S(=O)(=O)c1ccc(NC(=S)NCCC(c2ccccc2)c2ccccc2)cc1` showed an EC50 of 29.7 µM. For `CN(C)S(=O)(=O)c1ccc(NC(=S)NCCc2cccc(O)c2)cc1`, the EC50 was > 100 µM (inactive). In the case of `CC(CCc1ccccc1)NC(=S)Nc1cccc(S(=O)(=O)N(C)C)c1` (centres undefined), the EC50 is reported as 62.8 µM. In the case of `O=C(NC(=S)Nc1cc(S(=O)(=O)N2CCOCC2)ccc1N1CCOCC1)c1ccco1`, the EC50 is reported as > 100 µM (inactive). With `O=S(=O)(c1ccc(NC(=S)NCC(c2ccccc2)c2ccccc2)cc1)N1CCCC1` the EC50 was 19.9 µM. In the case of `O=c1c2ccccc2[nH]c(=S)n1-c1cccc(S(=O)(=O)N2CCCC2)c1`, the EC50 is reported as > 100 µM (inactive). In the case of `Cc1ccc(S(=O)(=O)N(C)C)cc1NC(=S)NC1CCN(Cc2ccccc2)CC1`, the EC50 is reported as > 100 µM (inactive). `CN(C)CC(C)(C)CNC(=S)Nc1cccc(S(=O)(=O)N(C)C)c1` was tested, and the EC50 was > 100 µM (inactive). For `Cc1ccc(CNC(=S)Nc2cccc(S(=O)(=O)N(C)C)c2)cc1`, the EC50 was > 100 µM (inactive). `CN(CCc1ccccc1)C(=S)Nc1cccc(S(=O)(=O)N(C)C)c1` was tested, and the EC50 was > 100 µM (inactive). In the case of `CN(C)CCCNC(=S)Nc1cccc(S(=O)(=O)N(C)C)c1`, the EC50 is reported as > 100 µM (inactive). In the case of `CN(C)S(=O)(=O)c1ccc(NC(=S)NCCc2ccccc2)cc1`, the EC50 is reported as > 100 µM (inactive). With `CN(C)S(=O)(=O)c1cccc(NC(=S)NCc2ccc(Cl)cc2)c1` the EC50 was 92.5 µM. `COc1cccc(CCNC(=S)Nc2cccc(S(=O)(=O)N(C)C)c2)c1` was tested, and the EC50 was 90.3 µM. With `CN(C)S(=O)(=O)c1cccc(NC(=S)NCCC(=O)N2CCCC2)c1` the EC50 was > 100 µM (inactive). With `CC1CC(NC(=S)Nc2cccc(S(=O)(=O)N(C)C)c2)CC(C)N1` (centres undefined) the EC50 was > 100 µM (inactive). `COc1ccc(CCNC(=S)Nc2ccc(S(=O)(=O)N3CCCCC3)cc2)cc1` gave an EC50 of 40.1 µM. Work on `CN(C)S(=O)(=O)c1cccc(NC(=S)NC(c2ccccc2)c2ccccc2)c1` yielded an EC50 of 20 µM. Work on `CN(C)S(=O)(=O)c1ccc(NC(=S)NCC(c2ccccc2)c2ccccc2)cc1` yielded an EC50 of 95.2 µM. In the case of `O=C(NC(=S)Nc1cc(S(=O)(=O)N2CCOCC2)ccc1O)c1ccco1`, the EC50 is reported as > 100 µM (inactive). `CN(C)S(=O)(=O)c1ccc(NC(=S)NCc2ccc(Cl)cc2)cc1` was tested, and the EC50 was > 100 µM (inactive). For `CN(C)S(=O)(=O)c1cccc(NC(=S)NCCN2CCCC2)c1`, the EC50 was > 100 µM (inactive). Compound `O=S(=O)(c1ccc(NC(=S)NC(c2ccccc2)c2ccccc2)cc1)N1CCCC1` has an EC50 of 26.1 µM. With `CCN(CC)c1ccc(C(=O)NC(=S)Nc2cc(S(=O)(=O)N3CCOCC3)ccc2-n2cncn2)cc1` the EC50 was > 100 µM (inactive). With `CN(C)S(=O)(=O)c1ccc(NC(=S)NCCc2cccc(Br)c2)cc1` the EC50 was 65.5 µM. With `Cc1ccc(S(=O)(=O)N(C)C)cc1NC(=S)NCCCn1ccnc1` the EC50 was > 100 µM (inactive). `CN(C)S(=O)(=O)c1ccc(NC(=S)NCCC(c2ccccc2)c2ccccc2)cc1` showed an EC50 of 38.6 µM. Compound `CN(C)S(=O)(=O)c1cccc(NC(=S)NC(C)(C)CC(C)(C)C)c1` has an EC50 of 91.5 µM. Compound `CN(C)S(=O)(=O)c1cccc(NC(=S)NCCc2cccc(Br)c2)c1` has an EC50 of 57.9 µM. For `COc1ccc(CCNC(=S)Nc2ccc(S(=O)(=O)N3CCCCC3)cc2)cc1OC`, the EC50 was 94.4 µM. In the case of `CN(C)S(=O)(=O)c1cccc(NC(=S)NCCCn2ccnc2)c1`, the EC50 is reported as > 100 µM (inactive). `COc1ccc(CNC(=S)Nc2ccc(S(=O)(=O)N3CCCCC3)cc2)cc1OC` was tested, and the EC50 was 75.3 µM. `O=S(=O)(c1ccc(NC(=S)NCc2cccc(F)c2)cc1)N1CCCCC1` was tested, and the EC50 was 53.6 µM. `Cc1ccc(S(=O)(=O)N(C)C)cc1NC(=S)NC(C)CCCC(C)C` (centres undefined) showed an EC50 of 57.9 µM. `O=S(=O)(c1ccc(NC(=S)NC(c2ccccc2)c2ccccc2)cc1)N1CCCCC1` gave an EC50 of 11 µM. In the case of `CCN(CC)S(=O)(=O)c1ccc(NC(=S)NCC(c2ccccc2)c2ccccc2)cc1`, the EC50 is reported as 45.8 µM. In the case of `CCN(CC)CCCNC(=S)Nc1cccc(S(=O)(=O)N(C)C)c1`, the EC50 is reported as > 100 µM (inactive). Compound `CCN(CC)S(=O)(=O)c1ccc(NC(=S)NC(c2ccccc2)c2ccccc2)cc1` has an EC50 of 29 µM. `CN(C)S(=O)(=O)c1cccc(NC(=S)NCCc2cccc(O)c2)c1` was tested, and the EC50 was > 100 µM (inactive). Compound `Cc1ccc(S(=O)(=O)N(C)C)cc1NC(=S)NC(C)CCC(C)C` (centres undefined) has an EC50 of 87.1 µM. `O=S(=O)(c1ccc(NC(=S)NCCC(c2ccccc2)c2ccccc2)cc1)N1CCCC1` gave an EC50 of 49.8 µM. In the case of `CN(C)S(=O)(=O)c1cccc(NC(=S)NCCC(c2ccccc2)c2ccccc2)c1`, the EC50 is reported as > 100 µM (inactive). Work on `CN(C)S(=O)(=O)c1ccc(NC(=S)NC(c2ccccc2)c2ccccc2)cc1` yielded an EC50 of 18.4 µM. With `Cc1ccc(C)c(NC(=S)Nc2ccc(S(=O)(=O)N3CCCCC3)cc2)c1` the EC50 was > 100 µM (inactive).
